Assay results: patent US20210276977A1, “BICYCLIC INHIBITORS OF HISTONE DEACETYLASE” (Alkermes, Inc., priority 2018, published 2021)

Legend:
[1] = target: T1, Full length Human HDAC1 (Homo sapiens, UniProt Q13547); test: HDAC1 enzymatic assay (deacetylation of FAM-labeled peptide substrate, microfluidic electrophoresis); assay type: biochemical; settings: for IC50: recombinant enzymatic assay
T1 construct: Full length Human HDAC1; His (C); FLAG (C); host or cells: baculovirus expression system
Method: (§1) HDAC2 and HDAC1 Enzymatic Assay (HDAC2 and HDAC1 IC50 Data)
(§2) The following describes an assay protocol for measuring the deacetylation of a peptide substrate by HDAC2 or HDAC1.
(§3) HD AC protein composition and respective substrate peptides are summarized below.
(§4) HD AC reactions are assembled in 384 well plates (Greiner) in a total volume of 20 μL as following:
(§5) HDAC proteins are pre-diluted in the assay buffer comprising: 100 mM HEPES, pH 7.5, 0.1% BSA, 0.01% Triton X-100, 25 mM KCl and dispensed into 384 well plate (10 uL per well).
(§6) Test compounds are serially pre-diluted in DMSO and added to the protein samples by acoustic dispensing (Labcyte Echo). Concentration of DMSO is equalized to 1% in all samples.
(§7) Control samples (0%-inhibition in the absence of inhibitor, DMSO only) and 100%-inhibition (in the absence of enzyme) are assembled in replicates of four and used to calculate the %-inhibition in the presence of compounds.
(§8) At this step compounds can be pre-incubated with enzyme if desired.
(§9) The reactions are initiated by addition of 10 uL of the FAM-labeled substrate peptide pre-diluted in the same assay buffer. Final concentration of substrate peptide is 1 uM (HDAC1-2).
(§10) The reactions are allowed to proceed at room temperature. Following incubation, the reactions are quenched by addition of 50 μL of termination buffer (100 mM HEPES, pH7.5, 0.01% Triton X-100, 0.1% SDS). Terminated plates are analyzed on a microfluidic electrophoresis instrument (Caliper LabChip® 3000, Caliper Life Sciences/Perkin Elmer) which enables electrophoretic separation of de-acetylated product from acetylated substrate. A change in the relative intensity of the peptide substrate and product is the parameter measured. Activity in each test sample is determined as the product to sum ratio (PSR): P/(S+P), where P is the peak height of the product, and S is the peak height of the substrate. Percent inhibition (Pinh) is determined using the following equation: Pinh=(PSR0% inh−PSRcompound)/(PSR0% inh−PSR100% inh)*100, in which: PSRcompound is the product/sum ratio in the presence of compound, PSR0% inh is the product/sum ratio in the absence of compound and the PSR100% inh is the product/sum ratio in the absence of the enzyme. To determine IC50 of compounds (50%-inhibition) the %-inh data (Pinh versus compound concentration) are fit by a 4 parameter sigmoid dose-response model using XLfit software (IDBS).
(§11) In the table, “A” indicates a IC50 value of less than 0.5 μM; “B” a IC50 value from 0.5 μM to 1.0 μM; “C” a IC50 value of greater than 1.0 μM and less than or equal to 2.0 μM; and “D” indicates an IC50 value of greater than 2.0 μM. NT=Not Tested.

[2] = target: T2, Full length Human HDAC2 (Homo sapiens, UniProt Q92769); test: HDAC2 enzymatic assay (deacetylation of FAM-labeled peptide substrate, microfluidic electrophoresis); assay type: biochemical; settings: for IC50: recombinant enzymatic assay
T2 construct: Full length Human HDAC2; FLAG (C); host or cells: baculovirus expression system
T2 sequence (Q92769 whole entry): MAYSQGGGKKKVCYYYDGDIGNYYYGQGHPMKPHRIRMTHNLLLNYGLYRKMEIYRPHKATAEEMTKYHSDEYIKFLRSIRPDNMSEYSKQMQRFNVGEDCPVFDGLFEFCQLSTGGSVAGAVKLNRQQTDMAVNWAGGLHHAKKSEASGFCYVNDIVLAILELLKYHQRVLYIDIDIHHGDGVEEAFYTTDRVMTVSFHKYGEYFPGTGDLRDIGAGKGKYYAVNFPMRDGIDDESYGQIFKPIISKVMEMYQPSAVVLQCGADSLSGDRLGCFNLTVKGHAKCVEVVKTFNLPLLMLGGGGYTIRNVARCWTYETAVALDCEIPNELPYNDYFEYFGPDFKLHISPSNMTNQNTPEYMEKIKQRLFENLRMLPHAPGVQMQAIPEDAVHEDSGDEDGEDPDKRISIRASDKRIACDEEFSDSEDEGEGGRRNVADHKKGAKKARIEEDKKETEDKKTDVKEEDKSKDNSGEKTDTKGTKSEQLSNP
Method: as §1, §2, §3, §4, §5, §6, §7, §8, §9, §10, §11

[3] = target: T3, HDAC2 (Homo sapiens, UniProt Q92769); test: HDAC2 Enzymatic Inhibition Assay in SH-SY5Y Cell Lysate with an Exogenous Substrate (HDAC-Glo 2); assay type: cell-based; settings: for IC50: SH-SY5Y cells
T3 construct: host or cells: SH-SY5Y cells
T3 sequence (Q92769 whole entry): as above
Method: HDAC2 Enzymatic Inhibition Assay in SH-SY5Y Cell Lysate with an Exogenous Substrate
SH-SY5Y cells (Sigma) were cultured in Eagle's Modified Essential Medium supplemented with 10% fetal bovine serum and pen/strep. Twenty-four hours prior to compound dosing 20 uL of cells were plated in white 384 well plates at a density of 1,500 cells/well. Compounds were serially diluted in neat DMSO and then diluted 1:100 v/v into media without FBS and mixed. Media was removed from the plated cells and the diluted compounds in serum free media (1% v/v final DMSO) were added and incubated at 37° C. for five hours. Ten uL of HDAC-Glo 2 reagent with 0.1% Triton X-100 was then added, the plate was mixed and allowed to develop at room temperature for 100 minutes. Plates were then read with a Spectramax LMax luminometer employing a 0.4 s integration time. Dose response curves were constructed with normalized data where CI-994 at 100 uM was defined as 100% inhibition and DMSO alone as 0% inhibition.
as §11

[4] = versus matched Comparator with heteroaromatic ring directly linked to azetidine
[5] = five hours incubation, Table 3, class symbols

T1 sequence (Q13547 whole entry): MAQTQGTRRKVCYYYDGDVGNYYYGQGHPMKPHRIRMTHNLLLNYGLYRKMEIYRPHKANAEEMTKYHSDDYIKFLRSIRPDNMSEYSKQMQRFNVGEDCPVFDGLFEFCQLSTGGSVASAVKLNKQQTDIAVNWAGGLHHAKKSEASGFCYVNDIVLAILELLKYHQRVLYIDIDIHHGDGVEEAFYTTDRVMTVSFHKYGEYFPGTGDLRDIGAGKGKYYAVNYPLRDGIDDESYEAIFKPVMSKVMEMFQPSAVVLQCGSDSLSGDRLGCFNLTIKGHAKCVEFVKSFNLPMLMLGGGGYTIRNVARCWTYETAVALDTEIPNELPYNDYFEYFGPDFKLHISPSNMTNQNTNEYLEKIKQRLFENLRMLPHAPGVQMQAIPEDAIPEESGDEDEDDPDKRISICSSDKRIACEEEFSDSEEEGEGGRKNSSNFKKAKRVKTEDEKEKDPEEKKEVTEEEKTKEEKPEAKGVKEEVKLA

## Nc1ccc(-c2ccc(F)cc2F)nc1NC(=O)N1CC(c2ncccn2)C1 [Comparator A, reference compound]
[1]; Table 4, numeric
  IC50: 4580 nM
[2]; Table 4, numeric
  IC50: 5290 nM
[3]; Table 4, numeric
  IC50: > 52000 nM

## Cc1ncc(C2CN(C(=O)Nc3nc(-c4ccc(F)cc4F)ccc3N)C2)cn1 [Comparator B, reference compound]
[1]; Table 4, numeric
  IC50: > 30000 nM
[2]; Table 4, numeric
  IC50: > 30000 nM
[3]; Table 4, numeric
  IC50: 30000 nM

## Cc1cnc(C2CN(C(=O)Nc3nc(-c4ccc(F)cc4F)ccc3N)C2)cn1 [Comparator C, reference compound]
[1]; Table 4, numeric
  IC50: 13900 nM
[2]; Table 4, numeric
  IC50: 13500 nM
[3]; Table 4, numeric
  IC50: 9700 nM

## Nc1ccc(-c2ccc(F)cc2F)nc1NC(=O)N1CC(Cc2ncccn2)C1 [Compound 1]
[1]; Table 2, class symbols
  IC50: < 500 nM
[1]; Table 4, numeric
  IC50: 454 nM
[1]; [4]
  fold more potent in the HDAC1 recombinant enzymatic assay than the corresponding comparator without spacer X: 10 fold
[2]; Table 2, class symbols
  IC50: 500 to 1000 nM
[2]; Table 4, numeric
  IC50: 700 nM
[2]; [4]
  fold more potent in the HDAC2 recombinant enzymatic assay than the corresponding comparator without spacer X: > 7 fold
[3]; Table 4, numeric
  IC50: 496 nM
[3]; [5]
  IC50: < 500 nM
[3]; [4]
  fold more potent in the SH-SY5Y cell assay than the corresponding comparator without spacer X: 100 fold

## Nc1ccc(-c2ccc(F)cc2F)nc1NC(=O)N1CC(Cc2ccccn2)C1 [Compound 2]
[1]; Table 2, class symbols
  IC50: < 500 nM
[2]; Table 2, class symbols
  IC50: 500 to 1000 nM
[3]; [5]
  IC50: 1000 to 2000 nM

## Nc1ccc(-c2ccc(F)cc2F)nc1NC(=O)N1CC(Cc2cccnc2)C1 [Compound 3]
[1]; Table 2, class symbols
  IC50: 500 to 1000 nM
[2]; Table 2, class symbols
  IC50: 1000 to 2000 nM
[3]; [5]
  IC50: 1000 to 2000 nM

## Nc1ccc(-c2ccc(F)cc2F)nc1NC(=O)N1CC(Cc2ccncc2)C1 [Compound 4]
[1]; Table 2, class symbols
  IC50: > 2000 nM
[2]; Table 2, class symbols
  IC50: > 2000 nM
[3]; [5]
  IC50: 1000 to 2000 nM

## Cc1ccc(CC2CN(C(=O)Nc3nc(-c4ccc(F)cc4F)ccc3N)C2)cn1 [Compound 5]
[1]; Table 2, class symbols
  IC50: 1000 to 2000 nM
[2]; Table 2, class symbols
  IC50: 1000 to 2000 nM
[3]; [5]
  IC50: > 2000 nM

## Cc1ncc(CC2CN(C(=O)Nc3nc(-c4ccc(F)cc4F)ccc3N)C2)cn1 [Compound 6]
[1]; Table 2, class symbols
  IC50: > 2000 nM
[1]; Table 4, numeric
  IC50: 2260 nM
[2]; Table 2, class symbols
  IC50: > 2000 nM
[2]; Table 4, numeric
  IC50: 2800 nM
[3]; Table 4, numeric
  IC50: 1560 nM
[3]; [5]
  IC50: 1000 to 2000 nM

## Cc1cnc(CC2CN(C(=O)Nc3nc(-c4ccc(F)cc4F)ccc3N)C2)nc1 [Compound 7]
[1]; Table 2, class symbols
  IC50: > 2000 nM
[2]; Table 2, class symbols
  IC50: > 2000 nM
[3]; [5]
  IC50: 1000 to 2000 nM

## Nc1ccc(-c2ccc(F)cc2F)nc1NC(=O)N1CC(Cc2ccn3cncc3c2)C1 [Compound 8]
[3]; [5]
  IC50: > 2000 nM

## COCc1ccc(CC2CN(C(=O)Nc3nc(-c4ccc(F)cc4F)ccc3N)C2)cn1 [Compound 9]
[1]; Table 2, class symbols
  IC50: 1000 to 2000 nM
[2]; Table 2, class symbols
  IC50: > 2000 nM
[3]; [5]
  IC50: > 2000 nM

## Cc1cc(CC2CN(C(=O)Nc3nc(-c4ccc(F)cc4F)ccc3N)C2)nc(C)n1 [Compound 10]
[3]; [5]
  IC50: > 2000 nM

## Cc1ccnc(CC2CN(C(=O)Nc3nc(-c4ccc(F)cc4F)ccc3N)C2)n1 [Compound 11]
[1]; Table 2, class symbols
  IC50: 500 to 1000 nM
[2]; Table 2, class symbols
  IC50: 500 to 1000 nM
[3]; [5]
  IC50: 500 to 1000 nM

## Nc1ccc(-c2ccc(F)cc2F)nc1NC(=O)N1CC(Cc2cnccn2)C1 [Compound 12]
[1]; Table 2, class symbols
  IC50: 500 to 1000 nM
[2]; Table 2, class symbols
  IC50: 500 to 1000 nM
[3]; [5]
  IC50: 1000 to 2000 nM

## Cc1cncc(CC2CN(C(=O)Nc3nc(-c4ccc(F)cc4F)ccc3N)C2)n1 [Compound 13]
[1]; Table 2, class symbols
  IC50: 1000 to 2000 nM
[2]; Table 2, class symbols
  IC50: 1000 to 2000 nM
[3]; [5]
  IC50: 1000 to 2000 nM

## Cc1cnc(CC2CN(C(=O)Nc3nc(-c4ccc(F)cc4F)ccc3N)C2)cn1 [Compound 14]
[1]; Table 2, class symbols
  IC50: < 500 nM
[1]; Table 4, numeric
  IC50: 406 nM
[2]; Table 2, class symbols
  IC50: 500 to 1000 nM
[2]; Table 4, numeric
  IC50: 583 nM
[3]; Table 4, numeric
  IC50: 687 nM
[3]; [5]
  IC50: 500 to 1000 nM

## COCc1cccc(CC2CN(C(=O)Nc3nc(-c4ccc(F)cc4F)ccc3N)C2)n1 [Compound 17]
[3]; [5]
  IC50: > 2000 nM

## COCc1cc(CC2CN(C(=O)Nc3nc(-c4ccc(F)cc4F)ccc3N)C2)ccn1 [Compound 18]
[3]; [5]
  IC50: > 2000 nM

## Nc1ccc(-c2ccc(F)cc2F)nc1NC(=O)N1CC(Cc2cncnc2)C1 [Compound 20]
[3]; [5]
  IC50: > 2000 nM

## Cc1cnc(CC2CN(C(=O)Nc3nc(-c4ccc(F)cc4F)ccc3N)C2)s1 [Compound 25]
[3]; [5]
  IC50: > 2000 nM

## Nc1ccc(-c2ccc(F)cc2F)nc1NC(=O)N1CC(Oc2cccnc2)C1 [Compound 28]
[3]; [5]
  IC50: > 2000 nM

## Nc1ccc(-c2ccc(F)cc2F)nc1NC(=O)N1CC(OCc2ccccn2)C1 [Compound 29]
[3]; [5]
  IC50: > 2000 nM

## Nc1ccc(-c2ccc(F)cc2F)nc1NC(=O)N1CC(Cc2ccncn2)C1 [Compound 32]
[3]; [5]
  IC50: 1000 to 2000 nM

## Nc1ccc(-c2ccc(F)cc2F)nc1NC(=O)N1CC(C(F)c2ncc(F)cn2)C1 (centres unmarked) [Compound 41]
[3]; [5]
  IC50: 1000 to 2000 nM

## Nc1ccc(-c2ccc(F)cc2F)nc1NC(=O)N1CC(Cc2cccc3nccn23)C1 [Compound 48]
[3]; [5]
  IC50: > 2000 nM

## Nc1ccc(-c2ccc(F)cc2F)nc1NC(=O)N1CC(Cc2ccc(C(F)(F)F)cn2)C1 [Compound 49]
[3]; [5]
  IC50: > 2000 nM

## Cc1cc(C)nc(CC2CN(C(=O)Nc3nc(-c4ccc(F)cc4F)ccc3N)C2)n1 [Compound 50]
[3]; [5]
  IC50: > 2000 nM

## Cc1cn(CC2CN(C(=O)Nc3nc(-c4ccc(F)cc4F)ccc3N)C2)cn1 [Compound 51]
[3]; [5]
  IC50: > 2000 nM

## Cc1cncn1CC1CN(C(=O)Nc2nc(-c3ccc(F)cc3F)ccc2N)C1 [Compound 52]
[3]; [5]
  IC50: > 2000 nM

## Cc1ccn(CC2CN(C(=O)Nc3nc(-c4ccc(F)cc4F)ccc3N)C2)n1 [Compound 53]
[3]; [5]
  IC50: > 2000 nM

## Cc1ccnn1CC1CN(C(=O)Nc2nc(-c3ccc(F)cc3F)ccc2N)C1 [Compound 54]
[3]; [5]
  IC50: 1000 to 2000 nM

## Cc1cnc(CC2CN(C(=O)Nc3nc(-c4ccc(F)cc4F)ccc3N)C2)o1 [Compound 55]
[3]; [5]
  IC50: > 2000 nM

## CCC(c1ncccn1)C1CN(C(=O)Nc2nc(-c3ccc(F)cc3F)ccc2N)C1 (centres unmarked) [Compound 56]
[3]; [5]
  IC50: > 2000 nM

## CC(c1ncccn1)C1CN(C(=O)Nc2nc(-c3ccccc3F)ccc2N)C1 (centres unmarked) [Compound 58]
[3]; [5]
  IC50: 1000 to 2000 nM

## CC(F)(c1ncccn1)C1CN(C(=O)Nc2nc(-c3ccc(F)cc3F)ccc2N)C1 (centres unmarked) [Compound 60]
[3]; [5]
  IC50: > 2000 nM

## Cc1cnc(CC2CN(C(=O)Nc3nc(-c4ccc(F)s4)ccc3N)C2)o1 [Compound 62]
[3]; [5]
  IC50: > 2000 nM

## Cc1cnc(CC2CN(C(=O)Nc3nc(-c4ccc(F)cc4)ccc3N)C2)o1 [Compound 63]
[3]; [5]
  IC50: 1000 to 2000 nM

## Cc1cnc(CC2CN(C(=O)Nc3nc(-c4ccc(F)s4)ccc3N)C2)nc1 [Compound 67]
[3]; [5]
  IC50: 500 to 1000 nM

## Nc1ccc(-c2ccc(F)cc2)nc1NC(=O)N1CC(C(F)(F)c2ccccn2)C1 [Compound 75]
[3]; [5]
  IC50: > 2000 nM

## Nc1ccc(-c2ccc(F)cc2)nc1NC(=O)N1CC(Cc2ccc(C(F)(F)F)cn2)C1 [Compound 85]
[3]; [5]
  IC50: > 2000 nM
